# Results: ChEMBL document CHEMBL1148451, “Receptor flexibility in the in silico screening of reagents in the S1' pocket of human collagenase” (J Med Chem, 2004)
# Target: T1, Interstitial collagenase (Homo sapiens, UniProt P03956)
# T1 sequence (P03956 whole entry): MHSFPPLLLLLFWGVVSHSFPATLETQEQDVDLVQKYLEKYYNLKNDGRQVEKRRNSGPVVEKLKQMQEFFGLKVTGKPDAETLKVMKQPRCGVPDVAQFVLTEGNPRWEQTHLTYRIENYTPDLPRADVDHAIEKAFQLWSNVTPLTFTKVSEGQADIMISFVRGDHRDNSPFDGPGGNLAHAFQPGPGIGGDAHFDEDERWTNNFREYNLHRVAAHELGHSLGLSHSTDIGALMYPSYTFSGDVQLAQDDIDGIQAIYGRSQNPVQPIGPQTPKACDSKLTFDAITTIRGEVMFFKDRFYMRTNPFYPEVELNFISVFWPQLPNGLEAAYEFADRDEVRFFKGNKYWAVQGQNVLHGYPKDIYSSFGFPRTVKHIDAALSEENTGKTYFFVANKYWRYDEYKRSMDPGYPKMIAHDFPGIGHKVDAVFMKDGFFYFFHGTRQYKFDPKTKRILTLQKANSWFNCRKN
# Test: Inhibition of human matrix metalloprotease-1
Structure (SMILES),Ki [nM],IC50 [nM]
O=C(NO)C1CCCCN1S(=O)(=O)N1CCC(Oc2ccc(-n3ccnc3)cc2)CC1 (stereo not given),224,
CNC(=O)C(NC(=O)C(CC(C)C)C(NS(=O)(=O)c1cccc2cccc(=O)n12)C(=O)NO)C(C)(C)C (stereo not given),,1.3
O=C(CN(Cc1ccc([N+](=O)[O-])cc1)S(=O)(=O)c1ccc(C(F)(F)F)cc1)NO,3,
CC(C)C(NS(=O)(=O)N1CCC(Oc2ccc(Cl)cn2)CC1)C(=O)NO (stereo not given),,360
O=C(CC1(S(=O)(=O)c2ccc(Oc3ccc(Cl)cc3)cc2)CCOCC1)NO,70,
Cc1ccc(COc2ccc(S(=O)(=O)N3CCCC(C)(O)C3C(=O)NO)cc2)c(C)c1 (stereo not given),,10

# The remaining lines, values ahead:
Ki [nM],IC50 [nM],Structure (SMILES)
,920,CCCCOc1ccc(S(=O)(=O)N2CC(N3CCOCC3)CC2C(=O)NO)cc1 (stereo not given)
,121,CC#CCOc1ccc(S(=O)(=O)N2CCc3ccccc3C2C(=O)NO)cc1 (stereo not given)
423,,O=C(NO)C1CCCCN1S(=O)(=O)N1CCN(c2ccccn2)CC1 (stereo not given)
,40,CCOC(=O)[C@H](C)NC(=O)[C@H](CC(C)C)NC(=O)[C@@H](CC(=O)NO)CC(C)C
